Laboratory results as given in ChEMBL document CHEMBL3044671, “Synthesis and in vitro antimicrobial and anti-tubercular evaluation of some quinoline-based azitidinone and thiazolidinone analogues” (2013).
Values after ≈ are worked out from the molar mass of the structure shown.

Experiments:
Assay type in all cases: functional
[1] = system: Mycobacterium tuberculosis; assay: Antitubercular activity against Mycobacterium tuberculosis H37Rv assessed as growth inhibition by BACTEC MGIT method
Aspergillus niger [2] = assay: Antimicrobial activity against Aspergillus niger MTCC 282 assessed as growth inhibition by agar streak dilution method
Aspergillus niger [3] = assay: Antimicrobial activity against Aspergillus niger MTCC 282 assessed as diameter of growth zone inhibition by agar streak dilution method; further: test concentration or dose not given here
Bacillus subtilis [4] = assay: Antimicrobial activity against Bacillus subtilis MTCC 430 assessed as growth inhibition by agar streak dilution method
Pseudomonas aeruginosa [5] = assay: Antimicrobial activity against Pseudomonas aeruginosa MTCC 741 assessed as diameter of growth zone inhibition by agar streak dilution method; further: test concentration or dose not given here
Staphylococcus aureus [6] = assay: Antimicrobial activity against Staphylococcus aureus MTCC 96 assessed as growth inhibition by agar streak dilution method
Escherichia coli [7] = assay: Antimicrobial activity against Escherichia coli MTCC 739 assessed as growth inhibition by agar streak dilution method
Staphylococcus aureus [8] = assay: Antimicrobial activity against Staphylococcus aureus MTCC 96 assessed as diameter of growth zone inhibition by agar streak dilution method; further: test concentration or dose not given here
Bacillus subtilis [9] = assay: Antimicrobial activity against Bacillus subtilis MTCC 430 assessed as diameter of growth zone inhibition by agar streak dilution method; further: test concentration or dose not given here
Candida albicans [10] = assay: Antimicrobial activity against Candida albicans MTCC 183 assessed as growth inhibition by agar streak dilution method
Pseudomonas aeruginosa [11] = assay: Antimicrobial activity against Pseudomonas aeruginosa MTCC 741 assessed as growth inhibition by agar streak dilution method
Escherichia coli [12] = assay: Antimicrobial activity against Escherichia coli MTCC 739 assessed as diameter of growth zone inhibition by agar streak dilution method; further: test concentration or dose not given here
Candida albicans [13] = assay: Antimicrobial activity against Candida albicans MTCC 183 assessed as diameter of growth zone inhibition by agar streak dilution method; further: test concentration or dose not given here

SMILES | MIC [1] [µg/mL] | MIC (Aspergillus niger [2]) [µg/mL] | diameter of the inhibition zone (DIZ) (Aspergillus niger [3]) [mm] | MIC (Bacillus subtilis [4]) [µg/mL] | diameter of the inhibition zone (DIZ) (Pseudomonas aeruginosa [5]) [mm] | MIC (Staphylococcus aureus [6]) [µg/mL] | MIC (Escherichia coli [7]) [µg/mL] | diameter of the inhibition zone (DIZ) (Staphylococcus aureus [8]) [mm] | diameter of the inhibition zone (DIZ) (Bacillus subtilis [9]) [mm] | MIC (Candida albicans [10]) [µg/mL] | MIC (Pseudomonas aeruginosa [11]) [µg/mL] | diameter of the inhibition zone (DIZ) (Escherichia coli [12]) [mm] | diameter of the inhibition zone (DIZ) (Candida albicans [13]) [mm]
O=C1C(Cl)C(c2cc3ccccc3nc2S)N1c1ccccc1 (centres undefined) | 1000 (≈ 2930 µM) | 100 (≈ 293 µM) | <10 | 100 (≈ 293 µM) | <10 | 100 (≈ 293 µM) | 100 (≈ 293 µM) | 17 | 17 | 100 (≈ 293 µM) | 100 (≈ 293 µM) | <10 | <10
Cc1ccccc1N1C(=O)C(Cl)C1c1cc2ccccc2nc1S (centres undefined) | 500 (≈ 1410 µM) | 100 (≈ 282 µM) | 18 | 100 (≈ 282 µM) | 19 | 62.5 (≈ 176 µM) | 100 (≈ 282 µM) | 21 | <10 | 100 (≈ 282 µM) | 100 (≈ 282 µM) | <10 | 20
Cc1cccc(N2C(=O)C(Cl)C2c2cc3ccccc3nc2S)c1 (centres undefined) | 500 (≈ 1410 µM) | 100 (≈ 282 µM) | 19 | 100 (≈ 282 µM) | <10 | 100 (≈ 282 µM) | 100 (≈ 282 µM) | 19 | 18 | 100 (≈ 282 µM) | 100 (≈ 282 µM) | 17 | 18
Cc1ccc(N2C(=O)C(Cl)C2c2cc3ccccc3nc2S)cc1 (centres undefined) | 250 (≈ 704 µM) | 100 (≈ 282 µM) | 17 | 100 (≈ 282 µM) | 18 | 100 (≈ 282 µM) | 100 (≈ 282 µM) | 18 | 19 | 100 (≈ 282 µM) | 100 (≈ 282 µM) | 18 | 15
O=C1C(Cl)C(c2cc3ccccc3nc2S)N1c1ccccc1[N+](=O)[O-] (centres undefined) | 500 (≈ 1300 µM) | 25 (≈ 64.8 µM) | 23 | 62.5 (≈ 162 µM) | 24 | 62.5 (≈ 162 µM) | 62.5 (≈ 162 µM) | 22 | 22 | 62.5 (≈ 162 µM) | 25 (≈ 64.8 µM) | 21 | 21
O=C1C(Cl)C(c2cc3ccccc3nc2S)N1c1cccc([N+](=O)[O-])c1 (centres undefined) | 250 (≈ 648 µM) | 12.5 (≈ 32.4 µM) | 24 | 50 (≈ 130 µM) | 23 | 50 (≈ 130 µM) | 50 (≈ 130 µM) | 22 | 22 | 100 (≈ 259 µM) | 50 (≈ 130 µM) | 22 | 20
O=C1C(Cl)C(c2cc3ccccc3nc2S)N1c1ccc([N+](=O)[O-])cc1 (centres undefined) | 250 (≈ 648 µM) | 12.5 (≈ 32.4 µM) | 24 | 25 (≈ 64.8 µM) | 24 | 50 (≈ 130 µM) | 12.5 (≈ 32.4 µM) | 24 | 24 | 100 (≈ 259 µM) | 12.5 (≈ 32.4 µM) | 25 | 20
O=C1C(Cl)C(c2cc3ccccc3nc2S)N1c1ccccc1Cl (centres undefined) | 125 (≈ 333 µM) | 62.5 (≈ 167 µM) | 20 | 12.5 (≈ 33.3 µM) | 22 | 6.25 (≈ 16.7 µM) | 50 (≈ 133 µM) | 24 | 25 | 100 (≈ 266 µM) | 50 (≈ 133 µM) | 23 | 19
O=C1C(Cl)C(c2cc3ccccc3nc2S)N1c1cccc(Cl)c1 (centres undefined) | 125 (≈ 333 µM) | 50 (≈ 133 µM) | 25 | 12.5 (≈ 33.3 µM) | 23 | 12.5 (≈ 33.3 µM) | 62.5 (≈ 167 µM) | 24 | 25 | 62.5 (≈ 167 µM) | 62.5 (≈ 167 µM) | 22 | 21
O=C1C(Cl)C(c2cc3ccccc3nc2S)N1c1ccc(Cl)cc1 (centres undefined) | 62.5 (≈ 167 µM) | 25 (≈ 66.6 µM) | 25 | 6.25 (≈ 16.7 µM) | 24 | 6.25 (≈ 16.7 µM) | 25 (≈ 66.6 µM) | 26 | 25 | 100 (≈ 266 µM) | 25 (≈ 66.6 µM) | 24 | 22
O=C1C(Cl)C(c2cc3ccccc3nc2S)N1c1ccc(F)cc1 (centres undefined) | 62.5 (≈ 174 µM) | 12.5 (≈ 34.8 µM) | 25 | 6.25 (≈ 17.4 µM) | 23 | 6.25 (≈ 17.4 µM) | 12.5 (≈ 34.8 µM) | 26 | 25 | 25 (≈ 69.7 µM) | 25 (≈ 69.7 µM) | 24 | 24
Cc1cnc(N2C(=O)C(Cl)C2c2cc3ccccc3nc2S)s1 (centres undefined) | 125 (≈ 345 µM) | 50 (≈ 138 µM) | 22 | 6.25 (≈ 17.3 µM) | 22 | 25 (≈ 69.1 µM) | 12.5 (≈ 34.5 µM) | 24 | 22 | 62.5 (≈ 173 µM) | 100 (≈ 276 µM) | 24 | 24
O=C1CSC(c2cc3ccccc3nc2S)N1c1ccccc1 (centres undefined) | 1000 (≈ 2950 µM) | 100 (≈ 295 µM) | 16 | 100 (≈ 295 µM) | 17 | 100 (≈ 295 µM) | 100 (≈ 295 µM) | 19 | 17 | 100 (≈ 295 µM) | 100 (≈ 295 µM) | 16 | 15
Cc1ccccc1N1C(=O)CSC1c1cc2ccccc2nc1S (centres undefined) | 500 (≈ 1420 µM) | 100 (≈ 284 µM) | 16 | 100 (≈ 284 µM) | 14 | 100 (≈ 284 µM) | 100 (≈ 284 µM) | 20 | 15 | 100 (≈ 284 µM) | 1000 (≈ 2840 µM) | 15 | 17
Cc1cccc(N2C(=O)CSC2c2cc3ccccc3nc2S)c1 (centres undefined) | 500 (≈ 1420 µM) | 100 (≈ 284 µM) | 20 | 100 (≈ 284 µM) | 18 | 62.5 (≈ 177 µM) | 100 (≈ 284 µM) | 21 | 19 | 100 (≈ 284 µM) | 100 (≈ 284 µM) | 19 | 19
Cc1ccc(N2C(=O)CSC2c2cc3ccccc3nc2S)cc1 (centres undefined) | 250 (≈ 709 µM) | 100 (≈ 284 µM) | 17 | 100 (≈ 284 µM) | 19 | 100 (≈ 284 µM) | 100 (≈ 284 µM) | 20 | 20 | 100 (≈ 284 µM) | 100 (≈ 284 µM) | 19 | 15
O=C1CSC(c2cc3ccccc3nc2S)N1c1ccccc1[N+](=O)[O-] (centres undefined) | 250 (≈ 652 µM) | 50 (≈ 130 µM) | 23 | 62.5 (≈ 163 µM) | 23 | 62.5 (≈ 163 µM) | 62.5 (≈ 163 µM) | 22 | 23 | 62.5 (≈ 163 µM) | 25 (≈ 65.2 µM) | 23 | 22
O=C1CSC(c2cc3ccccc3nc2S)N1c1cccc([N+](=O)[O-])c1 (centres undefined) | 125 (≈ 326 µM) | 25 (≈ 65.2 µM) | 23 | 50 (≈ 130 µM) | 23 | 50 (≈ 130 µM) | 6.25 (≈ 16.3 µM) | 22 | 22 | 100 (≈ 261 µM) | 25 (≈ 65.2 µM) | 24 | 20
